Experimental data as given in patent US8293682B2, “Growth regulators for gramineous weeds” (Rikengreen Co., Ltd., priority 2008, dated 2012).

Key:
[1] = system: annual bluegrass (Poa annua L.); assay: Test Example 2: count of ear emergence, poly-cup, applications at intervals / alternate application; format: in vivo; conditions: Ethephon 40 mg a.i./m^2 applied Day 10
Experimental: At the initial stage of the ear emergence of annual bluegrass (Poa annua L.) grown in a poly-cup of 11 cm×11 cm, benzyladenine (Beanine for painting; made by Rikengreen; containing 1% benzyladenine) and/or ethephon (Ethrel 10 soluble concentrate; Nissan Chemical Industries; containing 10% ethephon) were diluted in a predetermined amount of water, and a spreader (Riken Sprayzer (registered trade mark); made by Rikengreen) was added so as to be 1/1,000-fold concentration; the respectively diluted solutions were applied by atomization at a dose and intervals as indicated in Table (scattered solution: 200 mL/m^2), and the number of emerged ears of annual bluegrass (Poa annua L.) in the cup was counted through time. The test was carried out serially. […] The symbol “●” in Table indicates the treatment with benzyladenine, “◯” the treatment with ethephon, and “−” untreated. Dose means the amount at a single application.

[2] = system: annual bluegrass (Poa annua L.); assay: Test Example 3: number of emerged ears and leaves, poly-cup, two applications; format: in vivo; conditions: 2nd application after 29 days
Experimental: At the initial stage of the ear emergence of annual bluegrass (Poa annua L.) grown in a poly-cup of 11 cm×11 cm, benzyladenine (Beanine for painting; made by Rikengreen; containing 1% benzyladenine) and ethephon (Ethrel 10 soluble concentrate; Nissan Chemical Industries; containing 10% ethephon) were diluted in a predetermined amount of water, and a spreader (Riken Sprayzer (registered trade mark); made by Rikengreen) was added so as to be 1/1,000-fold concentration; the respectively diluted solutions were applied by atomization at a dose as indicated in Table (scattered solution: 200 mL/m^2), and after a lapse of 29 days, the 2nd application was carried out. Then, the number of emerged ears of annual bluegrass (Poa annua L.) in the cup was counted. Further, the number of leaves [Leaf] of annual bluegrass (Poa annua L.) was counted within the area of 6 cm×6 cm in the cup. The test was carried out serially. […] Dose means the amount at a single application.

[3] = system: annual bluegrass (Poa annua L.); assay: Test Example 4: field test in bent green turf, emerged ear number; format: in vivo; conditions: applied Day 0 and after 30 days
Experimental: In a bent green turf where annual bluegrasses (Poa annua L.) were grown, a test zone of 1 m×1 m was provided. Benzyladenine (Beanine for painting; made by Rikengreen; containing 1% benzyladenine) and ethephon (Ethrel 10 soluble concentrate; Nissan Chemical Industries; containing 10% ethephon) were diluted in a predetermined amount of water, and a spreader (Riken Sprayzer (registered trade mark); made by Rikengreen) was added so as to be 1/1,000-fold concentration. The respectively diluted solutions were applied to each test zone at the first application (Day 0) at a dose as indicated in Table, and after a lapse of 30 days the second application was carried out. The amount of solution scattered was 100 mL/m^2 both in the first and second applications. The number of ear emergence of annual bluegrass (Poa annua L.) within the area of 10×10 cm was counted at regular intervals at 3 spots per zone. […] Dose means the amount at a single application.

[4] = system: southern crabgrasses (Digitaria ciliaris Koel.); assay: Test Example 5: field test in Manilagrass turf, inhibitory effect for ear emergence; format: in vivo; conditions: Ethephon 50 mg a.i./m^2
Experimental: In a Manilagrass (Zoysia matrella) turf where southern crabgrasses (Digitaria ciliaris Koel.) were grown, a test zone of 1 m×1 m was provided. Benzyladenine (Beanine for painting; made by Rikengreen; containing 1% benzyladenine) and ethephon (Ethrel 10 soluble concentrate; Nissan Chemical Industries; containing 10% ethephon) were diluted in a predetermined amount of water. The respectively diluted solutions were applied to each test zone at the first application (Day 0) at a dose as indicated in Table, and after a lapse of 17 days the second application was carried out. The first application was conducted before the ear emergence of southern crabgrasses (Digitaria ciliaris Koel.). The amount of solution scattered was 150 mL/m^2 both in the first and second applications. The inhibitory effect for the ear emergence of southern crabgrasses (Digitaria ciliaris Koel.) within the area of 1 m×1 m was evaluated according to the standard as described in Table 7. […] The symbol “●” in Table 8 indicates the treatment with each agent, and “−” means untreated. Dose means the amount at a single application.

lawn grasses = conditions: Non-patent document 2; cited from earlier work
[5] = Day 46, Benzyladenine + Ethephon 0 + 20 mg a.i./m^2
[6] = Day 46, Benzyladenine + Ethephon 0 + 40 mg a.i./m^2
[7] = Day 46, Benzyladenine + Ethephon 0 + 80 mg a.i./m^2

O=P(O)(O)CCCl [Ethephon, 2-chloroethylphosphonic acid]
Count of ear emergence ([1]; Day 25): 35
Count of ear emergence ([1]; Day 33): 27
Ear (number of emerged ears in the cup) ([2]; Day 23, Benzyladenine + Ethephon 0 + 20 mg a.i./m^2): 30
Ear (number of emerged ears in the cup) ([2]; Day 23, Benzyladenine + Ethephon 0 + 40 mg a.i./m^2): 23
Ear (number of emerged ears in the cup) ([2]; Day 23, Benzyladenine + Ethephon 0 + 80 mg a.i./m^2): 13
Ear (number of emerged ears in the cup) [2, 5]: 34
[Leaf] (number of leaves within 6 cm×6 cm) [2, 5]: [90]
Ear (number of emerged ears in the cup) [2, 6]: 27
[Leaf] (number of leaves within 6 cm×6 cm) [2, 6]: [88]
Ear (number of emerged ears in the cup) [2, 7]: 29
[Leaf] (number of leaves within 6 cm×6 cm) [2, 7]: [79]
Ear (number of emerged ears in the cup) ([2]; Day 53, Benzyladenine + Ethephon 0 + 20 mg a.i./m^2): 34
Ear (number of emerged ears in the cup) ([2]; Day 53, Benzyladenine + Ethephon 0 + 40 mg a.i./m^2): 30
Ear (number of emerged ears in the cup) ([2]; Day 53, Benzyladenine + Ethephon 0 + 80 mg a.i./m^2): 41
Ear (mean emerged ear number within 10×10 cm) ([3]; Day 22, Ethephon 80, Benzyladenine 0 mg a.i./m^2): 53.7
Ear (mean emerged ear number within 10×10 cm) ([3]; Day 22, Ethephon 160, Benzyladenine 0 mg a.i./m^2): 25.0
Ear (mean emerged ear number within 10×10 cm) ([3]; Day 41, Ethephon 80, Benzyladenine 0 mg a.i./m^2): 57.3
Ear (mean emerged ear number within 10×10 cm) ([3]; Day 41, Ethephon 160, Benzyladenine 0 mg a.i./m^2): 24.3
Ear (mean emerged ear number within 10×10 cm) ([3]; Day 61, Ethephon 80, Benzyladenine 0 mg a.i./m^2): 68.7
Ear (mean emerged ear number within 10×10 cm) ([3]; Day 61, Ethephon 160, Benzyladenine 0 mg a.i./m^2): 59.0
Evaluation: index of inhibitory effect for ear emergence ([4]; Day 18, applied Day 0): 2 (20% or more-less than 30%)
Evaluation: index of inhibitory effect for ear emergence ([4]; Day 26, applied Day 0): 3 (30% or more-less than 40%)
Evaluation: index of inhibitory effect for ear emergence ([4]; Day 26, applied Day 0 and Day 17): 4 (40% or more-less than 50%)
Evaluation: index of inhibitory effect for ear emergence ([4]; Day 33, applied Day 0): 1 (10% or more-less than 20%)
Evaluation: index of inhibitory effect for ear emergence ([4]; Day 33, applied Day 0 and Day 17): 5 (50% or more-less than 60%)
Evaluation: index of inhibitory effect for ear emergence ([4]; Day 41, applied Day 0): 1 (10% or more-less than 20%)
Evaluation: index of inhibitory effect for ear emergence ([4]; Day 41, applied Day 0 and Day 17): 2 (20% or more-less than 30%)
extension of stolon and weight in lawn grasses (lawn grasses): promotes the extension of stolon and increase of the weight in lawn grasses
